Among the test systems are HOP-62 NSCLC; UO-31 renal; A549 NSCLC; MCF7 breast; SK-MEL-28 melanoma; SF-539 CNS; M14 melanoma; T-47D breast; 786-0 renal; TK-10 renal; NCI-H460 lung.
Common to all, as to assay: growth of human tumour cells (NCI), 48 h

Where “and” joins values, the source holds several entries; their conditions need not be identical. Identical values can stand only once.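 Step 1: Grow cells in 96-well plates. Step 2: Expose to compound for 48 hours at 5 concentrations. Step 3: Interpolate endpoints linearly; if unreached, use highest concentration. Here, GI50 denotes the concentration required for 50% inhibition of growth. The concentration for full growth arrest is given as TGI.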

With `O=C(/C=C/c1ccc([N+](=O)[O-])cc1)N1CCN(CCOC(c2ccc(F)cc2)c2ccc(F)cc2)CC1`, the TGI in the assay with HOP-62 NSCLC is above 100 µM; in the assay on UO-31 renal it was 96.4 µM; with A549 NSCLC, above 100 µM; in the assay with MCF7 breast it was above 100 µM; in the assay on SK-MEL-28 melanoma it was above 100 µM; in the assay with SF-539 CNS it was above 100 µM. For the same molecule, the TGI in the assay with M14 melanoma, in the assay with T-47D breast, in the assay with 786-0 renal, in the assay on TK-10 renal and in the assay with NCI-H460 lung was above 100 µM in each case.
Turning to `O=C1Nc2cccc(Cl)c2/C1=C\c1cccnc1`, the TGI was 19.1 µM in the assay on HOP-62 NSCLC; 18.5 µM with UO-31 renal; 33.6 µM with A549 NSCLC; 18.1 µM in the assay on MCF7 breast; above 100 µM with SK-MEL-28 melanoma; 39.7 µM in the assay with SF-539 CNS. Moreover, the TGI in the assay on M14 melanoma turned out to be 19.6 µM; in the assay on T-47D breast, 16.6 µM; with 786-0 renal, 20.9 µM; in the assay on TK-10 renal, 34.7 µM; in the assay on NCI-H460 lung it was 36.5 µM.
On to `Cc1csc2nc(-c3cccc([N+](=O)[O-])c3)c(/C=N/N=C(N)N)n12`, for which the TGI in the assay with UO-31 renal stood at 2.68 µM; with A549 NSCLC, 3.34 µM; in the assay on SK-MEL-28 melanoma, 3.15 µM; in the assay with SF-539 CNS it was 4.71 µM; in the assay on M14 melanoma, 3.1 µM; in the assay with T-47D breast, 8.06 µM. The TGI in the assay on 786-0 renal came to 2.91 µM; with TK-10 renal, 3.17 µM; in the assay with NCI-H460 lung, 9.61 µM.
With `COC(=O)c1c(O)ccc2c1c1c(n2CCc2ccc(OC)c(OC)c2)C(=O)c2ccccc2C1=O`, the TGI turned out to be 32.9 µM with HOP-62 NSCLC; 34.6 µM with UO-31 renal; 47.2 µM in the assay with A549 NSCLC; 45.2 µM with MCF7 breast; 24.8 µM in the assay on SK-MEL-28 melanoma; 28.1 µM in the assay on SF-539 CNS. The TGI in the assay with M14 melanoma was found to be 31 µM; in the assay with T-47D breast, 31.9 µM; in the assay with 786-0 renal, 32 µM; with TK-10 renal, 57.1 µM; in the assay with NCI-H460 lung it was 19.5 µM.
Consider `Brc1ccc(-c2[nH]c3ccccc3c2/C=N\Nc2ccc(-c3nc4ccccc4[nH]3)cc2)cc1`, for which the TGI in the assay on HOP-62 NSCLC was above 68.5 µM; in the assay on UO-31 renal, above 100 µM; in the assay with A549 NSCLC, above 100 µM; in the assay on MCF7 breast, above 100 µM; with M14 melanoma, above 100 µM; with T-47D breast, above 100 µM. The TGI is above 42 µM with 786-0 renal, above 100 µM in the assay with TK-10 renal and above 51.6 µM with NCI-H460 lung.
Consider `O=C1OC(c2ccc(O)cc2)(c2ccc(O)cc2)c2ccc(Cl)c3cccc1c23` (tested in a mixture with another compound), for which the TGI in the assay on HOP-62 NSCLC is 16.2 µM; in the assay with UO-31 renal, above 75 µM; with A549 NSCLC, above 75 µM; in the assay with MCF7 breast, above 75 µM; in the assay with SK-MEL-28 melanoma, 21.1 µM; in the assay with SF-539 CNS it was 20.8 µM. In addition, the values for the TGI in the assay on M14 melanoma, in the assay with TK-10 renal and in the assay on NCI-H460 lung were 19.8 µM, 52.6 µM and 23.7 µM, respectively.
For `Cc1ncc(C(=O)Nc2ccc(CN3CCN(C)CC3)c(C(F)(F)F)c2)cc1C#Cc1cnc(N)c2ccc(C#N)cc12`, the GI50 in the assay on MCF7 breast was 2.04 µM; in the assay on SF-539 CNS, 0.0796 µM; in the assay with T-47D breast, 0.114 µM; in the assay on TK-10 renal it was 0.0572 µM. Also, the TGI was above 100 µM in the assay on MCF7 breast, 1.45 µM in the assay on SF-539 CNS, above 100 µM in the assay with T-47D breast and 2.82 µM in the assay on TK-10 renal.
`COc1cc(/C=N/NC(=O)c2c(Cl)c(Cl)c(Cl)c(Cl)c2-c2nc3ccc(C(=O)c4ccccc4)cc3[nH]2)ccc1O`: the TGI in the assay on HOP-62 NSCLC, with UO-31 renal, in the assay with A549 NSCLC, with MCF7 breast, with SK-MEL-28 melanoma and with SF-539 CNS was above 100 µM throughout. In addition, the TGI in the assay with M14 melanoma, with T-47D breast, with 786-0 renal and in the assay on TK-10 renal was above 100 µM each time.
In the case of `O=C(O)c1cc2ccccc2c(N=Nc2ccc(S(=O)(=O)Nc3ccccn3)cc2)c1O`, the TGI with HOP-62 NSCLC, in the assay on UO-31 renal, in the assay on A549 NSCLC, with MCF7 breast, in the assay with SK-MEL-28 melanoma and in the assay with SF-539 CNS was above 100 µM throughout. Moreover, the TGI in the assay on M14 melanoma, in the assay with T-47D breast, with 786-0 renal, in the assay on TK-10 renal and in the assay on NCI-H460 lung was above 100 µM throughout.
`O=S(=O)(c1ccccc1)C1CC(c2nc3ccccc3[nH]2)=NO1` (stereo not drawn): the TGI in the assay on HOP-62 NSCLC, in the assay on UO-31 renal, in the assay on A549 NSCLC, in the assay on MCF7 breast, in the assay with SK-MEL-28 melanoma and in the assay with SF-539 CNS was above 100 µM each time. Moreover, the TGI in the assay with T-47D breast, in the assay on TK-10 renal and with NCI-H460 lung was above 100 µM each time.
On to `CCCCCCCCCCCCc1ccc(S(=O)(=O)O)cc1.[Cu+2]`, for which the TGI with HOP-62 NSCLC, in the assay on UO-31 renal, in the assay with A549 NSCLC, in the assay with MCF7 breast, in the assay on SK-MEL-28 melanoma and in the assay with SF-539 CNS was above 100 µM each time. Further, the TGI with M14 melanoma, in the assay with T-47D breast, in the assay on 786-0 renal, in the assay with TK-10 renal and in the assay on NCI-H460 lung was above 100 µM in each case.
In the case of `CC[C@@]1(O)CC(OC2CC(N3CCOCC3)C(O)C(C)O2)c2c(O)c3c(c(O)c2[C@H]1O)C(=O)c1cccc(O)c1C3=O` (stereo partly drawn), the TGI in the assay on HOP-62 NSCLC was 0.597 µM and 0.427 µM; in the assay with UO-31 renal, 1.57 µM and 3.28 µM; in the assay on A549 NSCLC, 0.6 µM; in the assay with MCF7 breast, 2.58 µM and 13.8 µM; in the assay on SK-MEL-28 melanoma, 1.8 µM and 1.94 µM; in the assay with SF-539 CNS, 1.07 µM and 0.71 µM. The TGI in the assay with M14 melanoma is 1.51 µM; in the assay on T-47D breast, 3.35 µM; in the assay with 786-0 renal, 2.18 µM; in the assay on TK-10 renal it was 1.7 µM; with NCI-H460 lung, 0.554 µM and 0.113 µM. Also, the GI50 with UO-31 renal is 0.437 µM and 0.828 µM; in the assay with A549 NSCLC, 0.000605 µM; in the assay on MCF7 breast, 0.0161 µM; with SF-539 CNS it was 0.0233 µM; in the assay on NCI-H460 lung, 0.052 nM.
As for `N#CC1(CCCI)CCCC1`, the TGI is above 100 µM in the assay on UO-31 renal; above 100 µM with A549 NSCLC; 57.3 µM in the assay with SK-MEL-28 melanoma; 45.1 µM with SF-539 CNS; 50.4 µM in the assay with M14 melanoma; above 100 µM with TK-10 renal. The molecule also came in with a TGI with NCI-H460 lung of 25.9 µM.
Take `C[C@]12CC[C@H]3[C@@H](CC=C4C[C@@H](O)CC[C@@]43C)[C@@H]1C/C(=C\c1ccncc1)[C@@H]2O`: the TGI in the assay on HOP-62 NSCLC was above 100 µM; with UO-31 renal, above 100 µM; in the assay with A549 NSCLC it was 61.3 µM; in the assay on MCF7 breast, 59 µM; in the assay on SK-MEL-28 melanoma, 51.3 µM; with SF-539 CNS, 45.9 µM. For the same molecule, the TGI was 40.6 µM with M14 melanoma; 42.5 µM in the assay with T-47D breast; 60.5 µM in the assay with 786-0 renal; above 100 µM in the assay with TK-10 renal; 42.2 µM with NCI-H460 lung.
As to `CC(=O)OC(C(=O)O)C(OC(C)=O)C(OC(C)=O)C(OC(C)=O)C(=O)O` (stereo not drawn), the TGI in the assay on HOP-62 NSCLC, with UO-31 renal, in the assay on A549 NSCLC, in the assay on MCF7 breast, with SK-MEL-28 melanoma and with SF-539 CNS was above 100 µM in each case. In addition, the TGI in the assay with M14 melanoma, in the assay on TK-10 renal and in the assay with NCI-H460 lung was above 100 µM throughout.
Regarding `N#Cc1c(-c2ccc([N+](=O)[O-])cc2)c2c([nH]c1=O)-c1ccccc1CCC2`, the TGI in the assay on HOP-62 NSCLC, in the assay on UO-31 renal, in the assay with A549 NSCLC, in the assay on MCF7 breast, in the assay on SK-MEL-28 melanoma and in the assay on SF-539 CNS was above 100 µM in each case. The TGI is above 100 µM in the assay with M14 melanoma; 70.5 µM with T-47D breast; above 100 µM in the assay with 786-0 renal; above 100 µM with TK-10 renal; above 100 µM in the assay on NCI-H460 lung.
As for `NC1CCN(c2nc3ccccc3c3c2CCCC3)CC1`, the TGI turned out to be 35.1 µM in the assay with HOP-62 NSCLC; 12.2 µM in the assay on UO-31 renal; 23.5 µM in the assay on A549 NSCLC; 8.6 µM in the assay with MCF7 breast; 10.6 µM with SK-MEL-28 melanoma; 11.8 µM in the assay with SF-539 CNS. In addition, the TGI in the assay on M14 melanoma amounted to 3.84 µM; in the assay on T-47D breast it was 7.29 µM; with 786-0 renal it was 13.3 µM; in the assay with TK-10 renal, 23.2 µM; with NCI-H460 lung it was 13.5 µM.
Regarding `Cc1c(-c2ccccc2)c(C#N)c2nnn(-c3ccc(Cl)cc3)c(=O)n12`, the TGI in the assay on HOP-62 NSCLC, in the assay with UO-31 renal, with A549 NSCLC, with MCF7 breast, in the assay with SK-MEL-28 melanoma and in the assay with SF-539 CNS was above 100 µM throughout. The TGI with M14 melanoma is above 100 µM; in the assay on T-47D breast, 47.4 µM; in the assay with 786-0 renal, 47.7 µM; in the assay with TK-10 renal, above 100 µM; in the assay on NCI-H460 lung, above 100 µM.
With `CC(C)CNC1=NCC(C)S1` (stereo not drawn), the TGI in the assay with HOP-62 NSCLC, in the assay with UO-31 renal, in the assay on A549 NSCLC, in the assay with MCF7 breast, in the assay with SK-MEL-28 melanoma and in the assay with SF-539 CNS was above 100 µM each time. In addition, the TGI in the assay with M14 melanoma, with T-47D breast, in the assay with TK-10 renal and in the assay with NCI-H460 lung was above 100 µM throughout.
As for `CC(C)CCN(CCC(C)C)CC(=O)Nc1ccc(S(=O)(=O)c2ccc(NC(=O)CN(CCC(C)C)CCC(C)C)cc2)cc1`, the GI50 in the assay with UO-31 renal was 2.07 µM; in the assay with A549 NSCLC, 5.38 µM; with MCF7 breast, 1.31 µM; in the assay with SK-MEL-28 melanoma, 2.64 µM; in the assay with SF-539 CNS it was 1.57 µM; in the assay on M14 melanoma, 1.58 µM. Also, the GI50 with T-47D breast is 1.4 µM; with TK-10 renal, 12.2 µM; in the assay with NCI-H460 lung, 2070 nM. Also, the TGI came to 12.8 µM with UO-31 renal; 25.7 µM in the assay with A549 NSCLC; 11 µM in the assay with MCF7 breast; 9.98 µM with SK-MEL-28 melanoma; 3.07 µM in the assay on SF-539 CNS; 4.01 µM in the assay on M14 melanoma. For the same molecule, the TGI with T-47D breast came to 4.29 µM; in the assay on TK-10 renal it was 25.5 µM; in the assay on NCI-H460 lung it was 6.1 µM.
On to `C=C(CN(C)C)C(=O)c1ccccc1OC`, for which the TGI in the assay with HOP-62 NSCLC is above 100 µM; in the assay on UO-31 renal it was 31.3 µM; with A549 NSCLC, above 100 µM; in the assay on SK-MEL-28 melanoma it was 38.2 µM; with SF-539 CNS it was 31.5 µM; in the assay on M14 melanoma, 28.9 µM. The TGI in the assay on T-47D breast is 38.5 µM; in the assay on 786-0 renal, 30 µM; in the assay on TK-10 renal, 30.3 µM; in the assay with NCI-H460 lung, 63.2 µM.
